Results reported in ChEMBL document CHEMBL1201862, “PubChem BioAssay data set” (2004).
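Briefly, cells in 96-well plates were exposed to five compound concentrations for 48 h, and endpoints were estimated by linear interpolation. At the GI50, growth is halved.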 Active and inactive are the calls of the source. Cut-off read from the data, not from the text of the source: active = GI50 up to about 1.1 µM and inactive = higher. Starred links: 1 amine or outer side, 2 acyl side, 3 side chain; linkers in the order of their positions; H or OH if unused. Positions of bridges follow the written chain, without caps; N, C: chain ends. Non-standard residues stand in square brackets, D forms with d. Residues, ends and D or L forms follow the SMILES beside them. Peptide text beside a SMILES is read from it. * marks the point of attachment. *: point of attachment. X40 = CC[C@H](C)[C@@H](N[*:1])[C@@H](O)CC(=O)[*:2]; NMeY = CN[C@@H](Cc1ccc(O)cc1)C(=O)O; dNMeL = CN[C@H](CC(C)C)C(=O)O; Hiv = CC(C)[C@H](O)C(=O)O; Pyruvoyl = CC(=O)C(=O)*; Boc = CC(C)(C)OC(=O)*

Key:
Assay in all cases: NCI anticancer screen, dose series, 48 h
KM12 = tested on: KM12
LOX IMVI = tested on: LOX IMVI
TK-10 = tested on: TK-10
SW-620 = tested on: SW-620
SNB-19 = tested on: SNB-19
PC-3 = tested on: PC-3
COLO 205 = tested on: COLO 205
HT-29 = tested on: HT-29
NCI-H460 = tested on: NCI-H460
SK-MEL-2 = tested on: SK-MEL-2
BT-549 = tested on: BT-549
786-0 = tested on: 786-0
HCT-116 = tested on: HCT-116
T47D = tested on: T47D
RXF 393 = tested on: RXF 393
SF-539 = tested on: SF-539
MDA-N = tested on: MDA-N
SK-OV-3 = tested on: SK-OV-3
SN12C = tested on: SN12C

SMILES | GI50 (KM12) | GI50 (LOX IMVI) | GI50 (TK-10) | GI50 (SW-620) | GI50 (SNB-19) | GI50 (PC-3) | GI50 (COLO 205) | GI50 (HT-29) | GI50 (NCI-H460) | GI50 (SK-MEL-2) | GI50 (BT-549) | GI50 (786-0) | GI50 (HCT-116) | GI50 (T47D) | GI50 (RXF 393) | GI50 (SF-539) | GI50 (MDA-N) | GI50 (SK-OV-3) | GI50 (SN12C)
C=C[C@@]1(C)CC2(C=C(CO)C(O)O2)Oc2c1c(=O)oc1cccc(C)c21 (stereo partly specified) | 18.3 µM (inactive) | 3.61 µM (inactive) | 17.6 µM (inactive) | 1.55 µM (inactive) | 16.7 µM (inactive) | 15.6 µM (inactive) | 9.08 µM (inactive) | 4.69 µM (inactive) | 19.8 µM (inactive) | 4.1 µM (inactive) | 3.35 µM (inactive) | 1.98 µM (inactive) | 1.74 µM (inactive) | 10.7 µM (inactive) | 2.26 µM (inactive) | 5.53 µM (inactive) | 4.03 µM (inactive) | 24.4 µM (inactive) | 9.86 µM (inactive)
Cc1cc2nc(C#N)c(N3CCN(c4ccc([N+](=O)[O-])cc4)CC3)nc2cc1C | > 100 µM (inactive) | > 100 µM (inactive) | > 66.5 µM (inactive) | > 100 µM (inactive) | 67 µM (inactive) | > 100 µM (inactive) | > 100 µM (inactive) | > 88.5 µM (inactive) | > 85.9 µM (inactive) | > 100 µM (inactive) | > 100 µM (inactive) | 52.7 µM (inactive) | > 68.4 µM (inactive) | 66.2 µM (inactive) | > 72.9 µM (inactive) | 26.1 µM (inactive) | > 79.3 µM (inactive) | > 69.5 µM (inactive) | > 92.7 µM (inactive)
CC(C)CC1N=C(OCc2ccccc2)OC1=O (stereo unspecified) | > 100 µM (inactive) | > 100 µM (inactive) | > 100 µM (inactive) | > 100 µM (inactive) | > 100 µM (inactive) | > 100 µM (inactive) | > 10 µM (inactive) | > 100 µM (inactive) | > 100 µM (inactive) | > 100 µM (inactive) | > 100 µM (inactive) | > 100 µM (inactive) | > 100 µM (inactive) | > 100 µM (inactive) | > 100 µM (inactive) | > 100 µM (inactive) | > 100 µM (inactive) | > 100 µM (inactive) | > 100 µM (inactive)
O=C1N=C(c2ccccc2)O/C1=C\c1ccccc1 | > 100 µM (inactive) | > 100 µM (inactive) | > 100 µM (inactive) | > 100 µM (inactive) | > 100 µM (inactive) | > 100 µM (inactive) | > 100 µM (inactive) | > 100 µM (inactive) | > 100 µM (inactive) | > 100 µM (inactive) | > 100 µM (inactive) | > 100 µM (inactive) | > 100 µM (inactive) | > 100 µM (inactive) | > 100 µM (inactive) | > 100 µM (inactive) | > 100 µM (inactive) | > 100 µM (inactive) | > 100 µM (inactive)
C#CC1(O)C(COP(=O)(O)OCC2OC(n3ccc(NCCCCCCCCCCCCCCCCCC)nc3=O)C(O)C2O)OC(n2ccc(N)nc2=O)C1O (stereo unspecified) | 0.836 µM (active) | 0.048 µM (active) | 0.401 µM (active) | 0.228 µM (active) | 2.71 µM (inactive) | 1.8 µM (inactive) | 0.71 µM (active) | 0.518 µM (active) | 0.0519 µM (active) | 0.67 µM (active) | 2.73 µM (inactive) | 4.22 µM (inactive) | 0.245 µM (active) | 1.18 µM (inactive) | 4.15 µM (inactive) | 1.16 µM (inactive) | 1.14 µM (inactive) | 8.13 µM (inactive) | 0.488 µM (active)
c1ccc2c(c1)nc1n2CSCC1 | > 100 µM (inactive) | > 100 µM (inactive) | > 100 µM (inactive) | > 100 µM (inactive) | > 100 µM (inactive) | > 100 µM (inactive) | > 100 µM (inactive) | > 100 µM (inactive) | > 100 µM (inactive) | > 100 µM (inactive) | > 100 µM (inactive) | > 100 µM (inactive) | > 100 µM (inactive) | > 100 µM (inactive) | > 100 µM (inactive) | > 100 µM (inactive) | > 100 µM (inactive) | > 100 µM (inactive) | > 100 µM (inactive)
CCCc1nnc2sc(COc3ccc(OCc4nn5c(CCC)nnc5s4)c(Cl)c3)nn12 | 31 µM (inactive) | 33.7 µM (inactive) | 31.3 µM (inactive) | 40.3 µM (inactive) | 33.8 µM (inactive) | 44.2 µM (inactive) | 23.2 µM (inactive) | 29.4 µM (inactive) | 23.3 µM (inactive) | 42.1 µM (inactive) | 23.9 µM (inactive) | 28.5 µM (inactive) | 27 µM (inactive) | 2.78 µM (inactive) | 27 µM (inactive) | 12.1 µM (inactive) | 16.9 µM (inactive) | 36.6 µM (inactive) | 29.4 µM (inactive)
Cc1nn2c(=O)c([N+](=O)[O-])c(/C=C/c3ccc(F)cc3)nc2s1 | 7.24 µM (inactive) | 2.79 µM (inactive) | 14.1 µM (inactive) | 11.5 µM (inactive) | 10.8 µM (inactive) | 9.42 µM (inactive) | 12.1 µM (inactive) | 6.52 µM (inactive) | 8.34 µM (inactive) | 9.91 µM (inactive) | 5.12 µM (inactive) | 10.9 µM (inactive) | 6.41 µM (inactive) | 4.03 µM (inactive) | 4.42 µM (inactive) | 8.55 µM (inactive) | 5.96 µM (inactive) | 12.6 µM (inactive) | 11.6 µM (inactive)
C#CC1(O)CCC2[C@@H]3CCc4cc(Oc5nc(F)nc(-c6c(C)c(C(=O)OCC)n7ccccc67)n5)ccc4C3CC[C@@]21C (stereo partly specified) | > 100 µM (inactive) | > 100 µM (inactive) | > 100 µM (inactive) | > 100 µM (inactive) | > 100 µM (inactive) | > 100 µM (inactive) | > 100 µM (inactive) | > 100 µM (inactive) | > 100 µM (inactive) | > 100 µM (inactive) | > 100 µM (inactive) | > 100 µM (inactive) | > 100 µM (inactive) | > 100 µM (inactive) | > 100 µM (inactive) | > 100 µM (inactive) | > 100 µM (inactive) | > 100 µM (inactive) | > 100 µM (inactive)
O=C1C=C/C(=N/c2cccc3c(/N=C4/C=CC(=O)O4)cccc23)O1 | > 100 µM (inactive) | 27.8 µM (inactive) | 17.7 µM (inactive) | 16.4 µM (inactive) | > 100 µM (inactive) | 48 µM (inactive) | 20.2 µM (inactive) | 41.8 µM (inactive) | > 100 µM (inactive) | > 100 µM (inactive) | 86.3 µM (inactive) | 19.4 µM (inactive) | 24.8 µM (inactive) | 33.7 µM (inactive) | 20.7 µM (inactive) | 19.1 µM (inactive) | 27.3 µM (inactive) | > 100 µM (inactive) | 29.9 µM (inactive)
COCN1CCN=c2c1c1c3c(c4ccccc4n23)CCC1 | > 100 µM (inactive) | > 100 µM (inactive) | > 100 µM (inactive) | > 100 µM (inactive) | > 100 µM (inactive) | > 100 µM (inactive) | > 100 µM (inactive) | > 100 µM (inactive) | > 100 µM (inactive) | > 100 µM (inactive) | > 100 µM (inactive) | > 100 µM (inactive) | > 100 µM (inactive) | > 100 µM (inactive) | > 100 µM (inactive) | > 100 µM (inactive) | > 100 µM (inactive) | > 100 µM (inactive) | > 100 µM (inactive)
CCOC(=O)C(C)c1nc2cc(F)c(F)cc2[nH]c1=O (stereo unspecified) | > 100 µM (inactive) | > 100 µM (inactive) | > 100 µM (inactive) | > 100 µM (inactive) | > 100 µM (inactive) | > 100 µM (inactive) | > 100 µM (inactive) | > 100 µM (inactive) | > 100 µM (inactive) | > 100 µM (inactive) | > 100 µM (inactive) | > 100 µM (inactive) | > 100 µM (inactive) | 22.9 µM (inactive) | > 100 µM (inactive) | > 100 µM (inactive) | > 100 µM (inactive) | > 100 µM (inactive) | > 100 µM (inactive)
COC(=O)C(Cc1ccccc1)NC(=O)C(CS)NC(=O)OC(C)(C)C (stereo not drawn) (Boc-Cys-Phe-OMe; configuration not given here) | 94.4 µM (inactive) | 69.2 µM (inactive) | > 100 µM (inactive) | 53.7 µM (inactive) | > 100 µM (inactive) | > 100 µM (inactive) | > 100 µM (inactive) | 99.3 µM (inactive) | > 100 µM (inactive) | > 100 µM (inactive) | > 100 µM (inactive) | > 100 µM (inactive) | 41.9 µM (inactive) | > 100 µM (inactive) | 26 µM (inactive) | > 100 µM (inactive) | > 100 µM (inactive) | > 100 µM (inactive) | > 100 µM (inactive)
CC[C@H](C)[C@H]1NC(=O)[C@@H](NC(=O)[C@@H](CC(C)C)N(C)C(=O)[C@@H]2CCCN2C(=O)C(C)=O)[C@@H](C)OC(=O)[C@H](Cc2ccc(OC)cc2)N(C)C(=O)[C@@H]2CCCN2C(=O)[C@H](CC(C)C)NC(=O)[C@H](C(C)C)OC(=O)C[C@@H]1O (Pyruvoyl-P[dNMeL]T[X40][Hiv]LP[NMeY](Me); ester 3-C) | 0.00148 µM (active) | 0.00428 µM (active) | 0.00838 µM (active) | 0.00505 µM (active) | 0.00224 µM (active) | 0.0046 µM (active) | 0.00368 µM (active) | 0.00434 µM (active) | 0.00429 µM (active) | 0.0047 µM (active) | 0.00617 µM (active) | 0.00361 µM (active) | 0.00222 µM (active) | 0.00404 µM (active) | 0.00383 µM (active) | 0.00361 µM (active) | 0.00467 µM (active) | 0.00528 µM (active) | 0.0043 µM (active)
